Values quoted from earlier work, collected in US9370492B2, “Solid pharmaceutical dosage forms comprising bisphosphonates and modified amino acid carriers” (EMISPHERE TECHNOLOGIES, INC., priority 2005, dated 2016).
Counter-ions that a name gives are not always drawn.

CCCCCN(C)CCC(O)(P(=O)(O)O)P(=O)(O)O [Ibandronate sodium, 3-(N-methyl-N-pentyl)amino-1-hydroxypropane-1,1-diphosphonic acid, monosodium salt, monohydrate]
solubility in organic solvents (organic solvents): practically insoluble | solubility in water (water): freely soluble
